{
  "source": "ChEMBL document CHEMBL5052835",
  "about": "“Slc26a3 inhibitors and use thereof” (2021)",
  "key": {"[1]": {"target": "T1, Chloride anion exchanger (Mus musculus) (UniProt Q9WVC8)", "T1 sequence (whole entry)": "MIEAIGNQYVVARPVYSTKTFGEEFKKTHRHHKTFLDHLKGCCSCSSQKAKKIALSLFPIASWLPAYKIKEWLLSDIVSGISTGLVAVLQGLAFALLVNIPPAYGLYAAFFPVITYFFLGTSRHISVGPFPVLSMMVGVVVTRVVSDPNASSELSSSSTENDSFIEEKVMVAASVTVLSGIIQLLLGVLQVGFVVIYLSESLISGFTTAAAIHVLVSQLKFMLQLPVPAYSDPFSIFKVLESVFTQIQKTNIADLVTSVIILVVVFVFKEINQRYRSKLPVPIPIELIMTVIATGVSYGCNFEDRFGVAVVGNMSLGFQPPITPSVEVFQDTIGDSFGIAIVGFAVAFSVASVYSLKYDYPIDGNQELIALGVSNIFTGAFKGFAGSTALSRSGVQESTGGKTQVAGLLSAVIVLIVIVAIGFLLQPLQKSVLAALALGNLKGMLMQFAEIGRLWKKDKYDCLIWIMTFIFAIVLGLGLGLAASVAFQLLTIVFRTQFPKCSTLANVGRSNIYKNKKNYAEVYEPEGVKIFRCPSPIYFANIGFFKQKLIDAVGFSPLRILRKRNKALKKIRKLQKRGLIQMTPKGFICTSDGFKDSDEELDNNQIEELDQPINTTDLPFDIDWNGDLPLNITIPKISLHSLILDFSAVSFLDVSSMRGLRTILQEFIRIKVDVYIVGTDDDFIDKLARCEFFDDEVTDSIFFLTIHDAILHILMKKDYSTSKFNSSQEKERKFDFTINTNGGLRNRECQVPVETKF", "assay": "Inhibition of mouse Slc26a3 transfected in rat FRT cells at 10 uM preincubated with forskolin, 8-Br-cGMP and PMA and measured by fluorescence assay relative to control", "format": "cell-based"}, "[2]": {"assay": "Inhibition of Slc26a3-mediated HCO3- influx/Cl efflux in rat FRT cells measured by fluorescence assay", "format": "cell-based"}, "Pendrin (Mus musculus)": {"target": "T2, Pendrin (Mus musculus) (UniProt Q9R155)", "T2 sequence (whole entry)": "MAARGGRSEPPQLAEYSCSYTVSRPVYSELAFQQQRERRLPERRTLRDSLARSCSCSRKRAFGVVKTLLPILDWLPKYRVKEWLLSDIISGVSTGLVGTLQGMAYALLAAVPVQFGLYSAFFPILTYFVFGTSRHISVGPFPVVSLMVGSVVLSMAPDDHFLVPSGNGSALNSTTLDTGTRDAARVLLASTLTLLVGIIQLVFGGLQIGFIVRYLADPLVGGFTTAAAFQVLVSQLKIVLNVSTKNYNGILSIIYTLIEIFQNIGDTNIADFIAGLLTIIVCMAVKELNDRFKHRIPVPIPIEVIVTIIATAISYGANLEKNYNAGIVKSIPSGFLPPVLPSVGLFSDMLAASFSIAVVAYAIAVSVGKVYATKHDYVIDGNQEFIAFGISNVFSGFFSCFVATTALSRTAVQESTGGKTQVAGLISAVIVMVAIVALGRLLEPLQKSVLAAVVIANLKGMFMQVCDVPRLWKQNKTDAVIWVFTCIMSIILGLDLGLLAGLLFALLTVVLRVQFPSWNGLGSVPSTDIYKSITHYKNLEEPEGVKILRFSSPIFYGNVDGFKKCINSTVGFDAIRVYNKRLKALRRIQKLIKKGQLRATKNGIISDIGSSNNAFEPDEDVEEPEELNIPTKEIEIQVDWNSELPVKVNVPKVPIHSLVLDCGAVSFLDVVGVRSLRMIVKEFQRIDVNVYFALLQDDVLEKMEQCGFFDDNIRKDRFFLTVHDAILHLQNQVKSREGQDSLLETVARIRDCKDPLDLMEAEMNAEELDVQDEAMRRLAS", "assay": "Inhibition of mouse Slc26a4-mediated Cl-/ I- exchange at 10 uM measured by cell-based fluorescence assay"}, "[3]": {"target": "T3, Anoctamin-1 (Mus musculus) (UniProt Q8BHY3)", "T3 sequence (whole entry)": "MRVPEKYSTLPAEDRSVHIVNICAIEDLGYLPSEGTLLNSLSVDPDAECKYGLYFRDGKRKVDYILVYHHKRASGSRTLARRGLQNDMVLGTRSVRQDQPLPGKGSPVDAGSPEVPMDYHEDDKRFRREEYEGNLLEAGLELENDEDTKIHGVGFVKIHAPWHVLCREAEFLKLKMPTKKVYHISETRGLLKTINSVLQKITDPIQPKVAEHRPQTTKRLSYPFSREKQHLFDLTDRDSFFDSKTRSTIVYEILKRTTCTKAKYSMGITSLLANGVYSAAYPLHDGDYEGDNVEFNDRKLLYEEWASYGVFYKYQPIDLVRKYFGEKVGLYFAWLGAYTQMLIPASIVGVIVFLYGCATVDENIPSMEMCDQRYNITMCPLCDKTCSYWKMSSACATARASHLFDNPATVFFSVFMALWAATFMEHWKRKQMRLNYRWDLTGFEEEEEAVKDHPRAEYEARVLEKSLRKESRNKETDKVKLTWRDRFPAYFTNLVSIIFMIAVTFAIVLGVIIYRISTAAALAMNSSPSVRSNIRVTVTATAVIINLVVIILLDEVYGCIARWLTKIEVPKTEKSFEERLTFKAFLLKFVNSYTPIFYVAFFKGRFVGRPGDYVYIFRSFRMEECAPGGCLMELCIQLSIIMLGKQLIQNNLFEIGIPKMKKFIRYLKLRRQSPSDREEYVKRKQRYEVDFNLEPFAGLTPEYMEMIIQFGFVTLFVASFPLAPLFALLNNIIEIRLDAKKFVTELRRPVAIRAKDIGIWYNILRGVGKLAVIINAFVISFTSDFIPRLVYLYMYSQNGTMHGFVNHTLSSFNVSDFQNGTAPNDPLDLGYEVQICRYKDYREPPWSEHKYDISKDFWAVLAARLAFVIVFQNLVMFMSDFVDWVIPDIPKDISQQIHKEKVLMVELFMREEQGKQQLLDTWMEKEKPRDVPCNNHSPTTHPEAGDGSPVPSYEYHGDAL", "assay": "Inhibition of mouse TMEM16A at 10 uM measured by cell-based fluorescence assay"}, "Jejunum": {"system": "Jejunum", "assay": "Inhibition of fluid absorption in mid-jejunal loops isolated from female CD-1 mouse at 10 uM assessed as effect on reduction in loop weight/length ratio", "format": "functional, tissue-based"}, "Mus musculus [4]": {"system": "Mus musculus", "assay": "In vivo inhibition of slc26a3 in loperamide-induced constipation model of female CD-1 mouse at 5 mg/kg, po co-administered with tenapanor assessed as reduction in stool water content", "format": "functional, organism-based"}, "Mus musculus [5]": {"system": "Mus musculus", "assay": "Inhibition of oxalate absorption in high oxalate and low calcium diet-induced oxalate nephropathy model of mouse at 5 mg/kg, po assessed as reduction in urine sediment", "format": "functional, organism-based"}},
  "note": "Calls of active or inactive are those of the source. The calls are words filed in the database; no cut-off is given here.",
  "data": [
    {"smiles": "Cc1c(CC(=O)O)c(=O)oc2c(C)c(OCc3cccc(Br)c3)ccc12", "values": [
      {"measurement": "inhibition", "setting": "[1]", "result": "> 50", "unit": "%"},
      {"measurement": "IC50", "setting": "[2]", "result": 100, "unit": "nM"},
      {"measurement": "inhibition", "setting": "Pendrin (Mus musculus)", "result": "inactive"},
      {"measurement": "inhibition", "setting": "[3]", "result": "inactive"},
      {"measurement": "inhibition", "setting": "Jejunum", "result": "Active"},
      {"measurement": "inhibition", "setting": "Mus musculus [4]", "result": "Active"},
      {"measurement": "inhibition", "setting": "Mus musculus [5]", "result": "Active"}
    ]}
  ]
}
